In PMC9403610, “Efficient screening of pancreatic lipase inhibitors from cod meat hydrolysate through ligand fishing strategy” (Frontiers in Nutrition, 2022):
Where no end group is shown, it is not given here.

What was measured:
[1] = molecular target: T1, Porcine pancreatic lipase (PL) (Sus scrofa, UniProt P00591); assay: Pancreatic lipase inhibition assay (pNPB substrate, absorbance 405 nm); assay type: biochemical; conditions: for IC50: pNPB substrate, Tris-HCl pH 7.5, 37°C
T1 construct: purchased Sigma Chemical Co. (St. Louis, MO, USA)
T1 sequence (P00591 1-450): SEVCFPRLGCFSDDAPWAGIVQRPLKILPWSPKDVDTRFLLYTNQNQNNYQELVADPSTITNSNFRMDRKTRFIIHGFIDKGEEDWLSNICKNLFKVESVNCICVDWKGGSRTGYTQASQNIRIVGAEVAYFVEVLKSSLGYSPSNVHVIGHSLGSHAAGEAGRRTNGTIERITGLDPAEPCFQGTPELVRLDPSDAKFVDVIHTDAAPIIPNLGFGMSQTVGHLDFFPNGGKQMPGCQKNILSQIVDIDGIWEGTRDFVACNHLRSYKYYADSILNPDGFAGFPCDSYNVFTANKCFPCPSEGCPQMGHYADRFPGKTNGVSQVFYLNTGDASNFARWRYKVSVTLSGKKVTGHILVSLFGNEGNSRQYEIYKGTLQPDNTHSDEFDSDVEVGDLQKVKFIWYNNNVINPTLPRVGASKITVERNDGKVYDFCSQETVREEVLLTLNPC
Method: Grind small pieces of cod meat into surimi, add alkaline protease, and hydrolyze for 2 h. The enzyme was then inactivated by high temperature and centrifuged. Finally, the supernatant was spray dried to obtain cod peptide (CP). According to the method of Hou et al. ([28]), the PL inhibition test was carried out on the protein hydrolysates, its gel chromatography fraction, and the pure peptides. The sample and PL were dissolved in Tris-HCl buffer (pH = 7.5), and pNPB was dissolved in acetonitrile, and diluted with tris-HCl buffer. Add 100 μL of the sample, 200 μL of Tris-HCl buffer, 150 μL of PL (5 mg/mL) to a 1.5 mL EP tube, incubate at 37°C for 10 min, and then add 150 μL of […] pNPB, shake and mix, and incubate at 37°C for 10 min. After the reaction was completed, the absorbance value at 405 nm was measured with a multifunctional microplate reader, and the PL inhibitory activity was calculated according to the following equation: Inhibition rate (%) = 1- (absorbance in the presence of inhibitor/[…] in negative control) × 100%.

[2] = molecular target: T1, Porcine pancreatic lipase (PL); assay: Assay of PLIs kinetics (reversibility, Lineweaver-Burk plots); assay type: biochemical; conditions: from slope of Lineweaver-Burk plot vs. peptide concentration; read-out: Ki (competitive inhibition constant)
Method: According to the method reported in the previous literature, with a slight modification, the type of inhibition of PL by active peptides was determined ([29], [30]). The peptide (0.8 mg/mL, final concentration) was reacted with different concentrations (0, 5, 10, 15, 20 mg/mL) of PL for 10 min, then 10 mM pNPB was added for 10 min. the absorbance of the reaction system at a wavelength of 405 nm was measured to determine the reversibility of the reaction. Next, the optimal PL concentration (5 mg/mL) and peptide (0, 0.8 mg/mL, final concentration) were fixed, and pNPB with different concentrations (1, 2, 3, 4, and 5 mM) was added to react for 10 min, a value was measured every 30 s, and the wavelength was 405 nm. The Lineweaver-Burk double reciprocal curve was used to determine the maximum velocity (Vmax) and Michaelis–Menten constant (Km). The slope and y-intercept of the Lineweaver-Burk plot vs. peptide concentration give a straight line with the intercepts on the horizontal axis as Ki (competitive inhibition constant) and K'i values (uncompetitive inhibition constant), respectively.

| Substance | IC50 [1] [µM] | Ki [2] [µM] | remaining activity at 6000 µg/mL ([1]; peptide concentration 6 mg/mL, read-out: residual activity on PL) [%] |
| --- | --- | --- | --- |
| GSPPPSG [GSPPPSG] | 1000 | 4190 |  |
| KLEGDLK [KLEGDLK] | 1350 | 1400 | ~10 |
